Results as given in patent US8685970B2, “Quinolines and related analogs as sirtuin modulators” (GlaxoSmithKline, LLC, priority 2008, dated 2014).

Molecular target: T1, SIRT1 (Homo sapiens, UniProt Q96EB6)
T1 sequence (Q96EB6 1-747): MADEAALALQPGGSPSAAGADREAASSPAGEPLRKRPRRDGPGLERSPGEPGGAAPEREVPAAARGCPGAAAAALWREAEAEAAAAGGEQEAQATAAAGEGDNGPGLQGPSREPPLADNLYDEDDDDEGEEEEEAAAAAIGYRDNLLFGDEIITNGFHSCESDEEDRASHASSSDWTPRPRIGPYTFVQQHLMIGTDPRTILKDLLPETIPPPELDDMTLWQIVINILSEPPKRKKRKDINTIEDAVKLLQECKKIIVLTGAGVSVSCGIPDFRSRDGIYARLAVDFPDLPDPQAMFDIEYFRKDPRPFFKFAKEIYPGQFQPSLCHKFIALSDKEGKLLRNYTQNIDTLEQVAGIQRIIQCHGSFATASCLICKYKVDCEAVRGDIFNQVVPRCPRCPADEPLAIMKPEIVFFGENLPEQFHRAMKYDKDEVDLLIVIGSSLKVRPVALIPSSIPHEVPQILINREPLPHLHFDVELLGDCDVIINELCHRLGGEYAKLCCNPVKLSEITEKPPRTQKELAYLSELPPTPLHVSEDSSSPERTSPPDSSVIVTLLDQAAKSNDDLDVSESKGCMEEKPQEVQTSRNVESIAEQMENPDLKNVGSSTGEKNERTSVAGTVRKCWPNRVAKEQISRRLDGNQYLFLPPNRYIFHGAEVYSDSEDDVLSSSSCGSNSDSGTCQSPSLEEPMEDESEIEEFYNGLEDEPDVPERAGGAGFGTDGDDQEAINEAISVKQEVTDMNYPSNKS
Assay: Mass spectrometry based SIRT1 deacetylation assay (activation)
Assay type: biochemical
Settings: 10 nM SIRT1, 0.5 μM peptide substrate, 120 μM βNAD+, 25 min at 25° C.
Procedure, shortened: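 Activation reported as EC1.5, the compound concentration producing 150% of DMSO-control deacetylation, plus maximum fold activation. Readout is mass-spectrometric ratio of deacetylated to acetylated p53-based peptide (0.5 μM) after 25 min, 25 °C, with 120 μM βNAD+ and 10 nM His-tagged human SIRT1, pH 8.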

SMILES	% Fold Act. (percent maximum fold activation)	EC1.5 (concentration of test compound that results in 150% activation of SIRT1)
O=C(Nc1cccnc1)c1cccc2ncc(-c3cccc(C(F)(F)F)c3)nc12 [Compound 124]	B (Fold Activation <200%)	A (EC1.5<1.0 uM)
O=C(Nc1ccc(Cl)nc1)c1cccc2ccc(-c3cccc(C(F)(F)F)c3)nc12 [Compound 58]	B (Fold Activation <200%)	A (EC1.5<1.0 uM)
O=C(Nc1cccc2ccc(-c3cccc(F)c3)nc12)c1cscn1 [Compound 74]	B (Fold Activation <200%)	B (EC1.5 1-25 uM)
FC(F)(F)c1cccc(-c2ccc3cccc(NCc4cccnc4)c3n2)c1 [Compound 135]	–	C (EC1.5>25 uM)
c1cncc(CNc2cccc3ccc(-c4ccc5c(c4)OCO5)nc23)c1 [Compound 164]	–	C (EC1.5>25 uM)
FC(F)(F)c1cccc(-c2ccc3cccc(CNC4CCOCC4)c3n2)c1 [Compound 144]	–	C (EC1.5>25 uM)
Cc1cc(-c2ccc3cccc(C(=O)Nc4nccs4)c3n2)no1 [Compound 69]	–	C (EC1.5>25 uM)
CC(C)(C)c1nnc(NC(=O)c2cccc3ccc(-c4cccc(C(F)(F)F)c4)nc23)s1 [Compound 44]	B (Fold Activation <200%)	A (EC1.5<1.0 uM)
O=C(Nc1cccc2ccc(-c3cccc(OC(F)(F)F)c3)nc12)c1cnccn1 [Compound 8]	B (Fold Activation <200%)	A (EC1.5<1.0 uM)
O=C(Nc1cccc2ccc(-c3ccc(F)c(C(F)(F)F)c3)nc12)c1ccccn1 [Compound 154]	B (Fold Activation <200%)	A (EC1.5<1.0 uM)
CS(=O)(=O)c1ccccc1-c1ccc2cccc(NC(=O)c3cscn3)c2n1 [Compound 93]	A (Fold activation >200%)	A (EC1.5<1.0 uM)
FC(F)(F)c1cccc(-c2ccc3cccc(NCC4CCCC4)c3n2)c1 [Compound 138]	–	C (EC1.5>25 uM)
Cc1cnc(NC(=O)c2cccc3ccc(-c4cccc(C(F)(F)F)c4)nc23)s1 [Compound 42]	B (Fold Activation <200%)	A (EC1.5<1.0 uM)
O=C(Nc1ccncn1)c1cccc2ccc(-c3cccc(N4CCOCC4)c3)nc12 [Compound 111]	A (Fold activation >200%)	A (EC1.5<1.0 uM)
O=C(Nc1cccc2ccc(-c3cc(F)cc(C(F)(F)F)c3)nc12)c1ccncc1 [Compound 160]	–	C (EC1.5>25 uM)
O=C(Nc1ccccn1)c1cccc2ccc(-c3ccccc3C(F)(F)F)nc12 [Compound 85]	B (Fold Activation <200%)	B (EC1.5 1-25 uM)
Cc1cc(-c2ccc3cccc(C(=O)Nc4ccncn4)c3n2)no1 [Compound 70]	–	C (EC1.5>25 uM)
O=C(Nc1cnccn1)c1cccc2ccc(-c3cccc(C(F)(F)F)c3)nc12 [Compound 16]	A (Fold activation >200%)	A (EC1.5<1.0 uM)
O=C(NC1CCNCC1)c1cccc2ccc(-c3cccc(C(F)(F)F)c3)nc12 [Compound 71]	A (Fold activation >200%)	B (EC1.5 1-25 uM)
O=C(Nc1nccs1)c1cccc2ccc(-c3ccccc3)nc12 [Compound 12]	A (Fold activation >200%)	A (EC1.5<1.0 uM)
O=C(NCc1cccnc1)c1cccc2ccc(-c3cccc(OC4CCNCC4)c3)nc12 [Compound 95]	A (Fold activation >200%)	B (EC1.5 1-25 uM)

Other lines, results leading:

% Fold Act. (percent maximum fold activation)	EC1.5 (concentration of test compound that results in 150% activation of SIRT1)	SMILES
A (Fold activation >200%)	B (EC1.5 1-25 uM)	Cn1cnc(C(=O)Nc2cccc3ccc(-c4cccnc4)nc23)c1 [Compound 294]
A (Fold activation >200%)	A (EC1.5<1.0 uM)	O=C(Nc1cccnc1)c1cccc2ccc(-c3cccc(C(F)F)c3)nc12 [Compound 260]
A (Fold activation >200%)	A (EC1.5<1.0 uM)	O=C(Nc1ncc(CN2CCCC2)s1)c1cccc2ccc(-c3cccc(C(F)(F)F)c3)nc12 [Compound 219]
A (Fold activation >200%)	A (EC1.5<1.0 uM)	O=C(Nc1nncs1)c1cccc2ccc(-c3cccc(N4CCOCC4)c3)nc12 [Compound 251]
A (Fold activation >200%)	A (EC1.5<1.0 uM)	Cc1ccc(-c2ccc3cccc(NC(=O)c4cscn4)c3n2)cn1 [Compound 198]
B (Fold Activation <200%)	A (EC1.5<1.0 uM)	Cc1nnc(NC(=O)c2cccc3ccc(-c4cccc(C(F)(F)F)c4)nc23)s1 [Compound 275]
A (Fold activation >200%)	A (EC1.5<1.0 uM)	CN1CCOc2cc(-c3ccc4cccc(NC(=O)c5cscn5)c4n3)ccc21 [Compound 202]
–	C (EC1.5>25 uM)	FC(F)(F)c1ccc(-c2ccc3cccc(NCc4cccnc4)c3n2)cc1 [Compound 171]
B (Fold Activation <200%)	B (EC1.5 1-25 uM)	O=C(Nc1nccs1)c1cccc2cnc(-c3cccc(N4CCOCC4)c3)nc12 [Compound 299]
A (Fold activation >200%)	A (EC1.5<1.0 uM)	Cn1ccc(C(=O)Nc2cccc3ccc(-c4cccnc4)nc23)n1 [Compound 293]
A (Fold activation >200%)	A (EC1.5<1.0 uM)	O=C(Nc1ccncn1)c1cccc2ccc(-c3ccnc(C(F)F)c3)nc12 [Compound 308]
A (Fold activation >200%)	A (EC1.5<1.0 uM)	O=C(Nc1cccc(CN2CCOCC2)c1)c1cccc2ccc(-c3cccc(C(F)F)c3)nc12 [Compound 286]
A (Fold activation >200%)	A (EC1.5<1.0 uM)	O=C(Nc1nccs1)c1cccc2ccc(-c3cccc(C(F)F)c3)nc12 [Compound 247]
B (Fold Activation <200%)	A (EC1.5<1.0 uM)	O=C(Nc1nccs1)c1cccc2ccc(-c3cccnc3)nc12 [Compound 180]
A (Fold activation >200%)	B (EC1.5 1-25 uM)	O=C(Nc1cccc2ccc(-c3ccccc3OCCN3CCOCC3)nc12)c1cscn1 [Compound 175]
A (Fold activation >200%)	A (EC1.5<1.0 uM)	O=C(Nc1cccc2ccc(-c3cccc(C(F)(F)F)c3)nc12)c1cccc(OC[C@@H](O)CO)n1 [Compound 203]
B (Fold Activation <200%)	B (EC1.5 1-25 uM)	O=C(Nc1cccc2ccc(-c3cccc(C(F)(F)F)c3)nc12)c1cccs1 [Compound 204]
A (Fold activation >200%)	A (EC1.5<1.0 uM)	O=C(Nc1ccncc1)c1cccc2ccc(-c3cccc(N4CCOCC4)c3)nc12 [Compound 254]
B (Fold Activation <200%)	B (EC1.5 1-25 uM)	Cc1ccc(-c2ccc3cccc(NC(=O)c4cscn4)c3n2)cc1 [Compound 212]
A (Fold activation >200%)	A (EC1.5<1.0 uM)	O=C(Nc1cccc2ccc(-c3cccc(C(F)(F)F)c3)nc12)c1cccc(OC[C@@H](O)CO)c1 [Compound 187]
